From PubChem BioAssay (NCI)
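The concentration for 50% growth inhibition is given as GI50. At the TGI there is no net growth.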

Assays:
Experiment in all cases: growth of human tumour cells (NCI), 384-well format
786-0 renal = tested on: 786-0 renal
A498 renal = tested on: A498 renal
A549 NSCLC = tested on: A549 NSCLC
ACHN renal = tested on: ACHN renal
BT-549 breast = tested on: BT-549 breast
CAKI-1 renal = tested on: CAKI-1 renal
COLO 205 colon = tested on: COLO 205 colon
DU-145 prostate = tested on: DU-145 prostate
EKVX NSCLC = tested on: EKVX NSCLC
HCT-116 colon = tested on: HCT-116 colon
HCT-15 colon = tested on: HCT-15 colon
HL-60(TB) leukemia = tested on: HL-60(TB) leukemia
HOP-62 NSCLC = tested on: HOP-62 NSCLC
HOP-92 NSCLC = tested on: HOP-92 NSCLC
HS 578T breast = tested on: HS 578T breast
HT29 colon = tested on: HT29 colon
IGROV1 ovarian = tested on: IGROV1 ovarian
K-562 leukemia = tested on: K-562 leukemia
KM12 colon = tested on: KM12 colon
M14 melanoma = tested on: M14 melanoma
MALME-3M melanoma = tested on: MALME-3M melanoma
MCF7 breast = tested on: MCF7 breast
MDA-MB-231 breast = tested on: MDA-MB-231 breast
MDA-MB-435 melanoma = tested on: MDA-MB-435 melanoma
MDA-MB-468 breast = tested on: MDA-MB-468 breast
MOLT-4 leukemia = tested on: MOLT-4 leukemia
NCI-H226 lung = tested on: NCI-H226 lung
NCI-H23 lung = tested on: NCI-H23 lung
NCI-H322M lung = tested on: NCI-H322M lung
NCI-H460 NSCLC = tested on: NCI-H460 NSCLC
NCI-H522 lung = tested on: NCI-H522 lung
OVCAR-3 ovarian = tested on: OVCAR-3 ovarian
OVCAR-4 ovarian = tested on: OVCAR-4 ovarian
OVCAR-5 ovarian = tested on: OVCAR-5 ovarian
OVCAR-8 ovarian = tested on: OVCAR-8 ovarian
PC-3 prostate = tested on: PC-3 prostate
RXF 393 renal = tested on: RXF 393 renal
SF-268 CNS = tested on: SF-268 CNS
SF-295 CNS = tested on: SF-295 CNS
SF-539 CNS = tested on: SF-539 CNS
SK-MEL-2 melanoma = tested on: SK-MEL-2 melanoma
SK-MEL-28 melanoma = tested on: SK-MEL-28 melanoma
SK-MEL-5 melanoma = tested on: SK-MEL-5 melanoma
SK-OV-3 ovarian = tested on: SK-OV-3 ovarian
SN12C renal = tested on: SN12C renal
SNB-19 CNS = tested on: SNB-19 CNS
SNB-75 CNS = tested on: SNB-75 CNS
SR leukemia = tested on: SR leukemia
SW-620 colon = tested on: SW-620 colon
T-47D breast = tested on: T-47D breast
TK-10 renal = tested on: TK-10 renal
U251 glioblastoma = tested on: U251 glioblastoma
UACC-257 melanoma = tested on: UACC-257 melanoma
UACC-62 melanoma = tested on: UACC-62 melanoma
UO-31 renal = tested on: UO-31 renal

SMILES: O=C(NOCCO)c1cc(CN2OCCCC2=O)c(F)c(F)c1Nc1ccc(I)cc1F
- GI50 ([…]-0 renal): 11.6 µM
- TGI (786-0 renal): 42 µM
- GI50 (A498 renal): 0.236 µM
- TGI (A498 renal): 23.4 µM
- GI50 (A549 NSCLC): 0.0535 µM
- TGI (A549 NSCLC): 10.9 µM
- GI50 (ACHN renal): 3.48 µM
- TGI (ACHN renal): > 100 µM
- GI50 (BT-549 breast): 6.65 µM
- TGI (BT-549 breast): 72.1 µM
- GI50 (CAKI-1 renal): 0.059 µM
- TGI (CAKI-1 renal): 24.9 µM
- GI50 (COLO 205 colon): < 0.01 µM
- TGI (COLO 205 colon): 0.027 µM
- GI50 (DU-145 prostate): 1.41 µM
- TGI (DU-145 prostate): > 100 µM
- GI50 (EKVX NSCLC): 0.201 µM
- TGI (EKVX NSCLC): 14.9 µM
- GI50 (HCT-116 colon): 0.018 µM
- TGI (HCT-116 colon): 1.28 µM
- GI50 (HCT-15 colon): 5.87 µM
- TGI (HCT-15 colon): > 100 µM
- GI50 (HL-60(TB) leukemia): < 0.01 µM
- TGI (HL-60(TB) leukemia): 10.6 µM
- GI50 (HOP-62 NSCLC): 0.0251 µM
- TGI (HOP-62 NSCLC): 64.6 µM
- GI50 (HOP-92 NSCLC): 0.179 µM
- TGI (HOP-92 NSCLC): 1.72 µM
- GI50 (HS 578T breast): 3.48 µM
- TGI (HS 578T breast): 23.8 µM
- GI50 (HT29 colon): < 0.01 µM
- TGI (HT29 colon): 20.8 µM
- GI50 (IGROV1 ovarian): 0.0179 µM
- TGI (IGROV1 ovarian): 7.87 µM
- GI50 (K-562 leukemia): 0.0276 µM
- TGI (K-562 leukemia): 17 µM
- GI50 (KM12 colon): 1.71 µM
- TGI (KM12 colon): > 100 µM
- GI50 (M14 melanoma): < 0.01 µM
- TGI (M14 melanoma): 0.0119 µM
- GI50 (MALME-3M melanoma): < 0.01 µM
- TGI (MALME-3M melanoma): < 0.01 µM
- GI50 (MCF7 breast): 5.12 µM
- TGI (MCF7 breast): 35.6 µM
- GI50 (MDA-MB-231 breast): 0.0601 µM
- TGI (MDA-MB-231 breast): > 100 µM
- GI50 (MDA-MB-435 melanoma): < 0.01 µM
- TGI (MDA-MB-435 melanoma): > 100 µM
- GI50 (MDA-MB-468 breast): 2.56 µM
- TGI (MDA-MB-468 breast): 13.8 µM
- GI50 (MOLT-4 leukemia): 7.81 µM
- TGI (MOLT-4 leukemia): 20.6 µM
- GI50 (NCI-H226 lung): 0.0421 µM
- TGI (NCI-H226 lung): 7.38 µM
- GI50 (NCI-H23 lung): < 0.01 µM
- TGI (NCI-H23 lung): 0.371 µM
- GI50 (NCI-H322M lung): 0.0737 µM
- TGI (NCI-H322M lung): 4.19 µM
- GI50 (NCI-H460 NSCLC): 0.0236 µM
- TGI (NCI-H460 NSCLC): 51.9 µM
- GI50 (NCI-H522 lung): 5.97 µM
- TGI (NCI-H522 lung): 30.2 µM
- GI50 (OVCAR-3 ovarian): 10.2 µM
- TGI (OVCAR-3 ovarian): 39.6 µM
- GI50 (OVCAR-4 ovarian): 17.4 µM
- TGI (OVCAR-4 ovarian): > 100 µM
- GI50 (OVCAR-5 ovarian): < 0.01 µM
- TGI (OVCAR-5 ovarian): > 100 µM
- GI50 (OVCAR-8 ovarian): 4.6 µM
- TGI (OVCAR-8 ovarian): 25.5 µM
- GI50 (PC-3 prostate): 34.4 µM
- TGI (PC-3 prostate): > 100 µM
- GI50 (RXF 393 renal): 0.498 µM
- TGI (RXF 393 renal): 7.61 µM
- GI50 (SF-268 CNS): 24.8 µM
- TGI (SF-268 CNS): > 100 µM
- GI50 (SF-295 CNS): 11.2 µM
- TGI (SF-295 CNS): 41.1 µM
- GI50 (SF-539 CNS): 0.554 µM
- TGI (SF-539 CNS): 4.03 µM
- GI50 (SK-MEL-2 melanoma): < 0.01 µM
- TGI (SK-MEL-2 melanoma): 0.019 µM
- GI50 (SK-MEL-28 melanoma): < 0.01 µM
- TGI (SK-MEL-28 melanoma): 0.0115 µM
- GI50 (SK-MEL-5 melanoma): < 0.01 µM
- TGI (SK-MEL-5 melanoma): 17.5 µM
- GI50 (SK-OV-3 ovarian): 8.12 µM
- TGI (SK-OV-3 ovarian): 55.4 µM
- GI50 (SN12C renal): 1.28 µM
- TGI (SN12C renal): > 100 µM
- GI50 (SNB-19 CNS): 12.7 µM
- TGI (SNB-19 CNS): 62.8 µM
- GI50 (SNB-75 CNS): 2.85 µM
- TGI (SNB-75 CNS): 17.7 µM
- GI50 (SR leukemia): 2.12 µM
- TGI (SR leukemia): 11.1 µM
- GI50 (SW-620 colon): < 0.01 µM
- TGI (SW-620 colon): > 100 µM
- GI50 (T-47D breast): 21.5 µM
- TGI (T-47D breast): 65.2 µM
- GI50 (TK-10 renal): 0.198 µM
- TGI (TK-10 renal): 44.7 µM
- GI50 (U251 glioblastoma): 0.209 µM
- TGI (U251 glioblastoma): 17.8 µM
- GI50 (UACC-257 melanoma): < 0.01 µM
- TGI (UACC-257 melanoma): < 0.01 µM
- GI50 (UACC-62 melanoma): < 0.01 µM
- TGI (UACC-62 melanoma): 0.0869 µM
- GI50 (UO-31 renal): 0.133 µM
- TGI (UO-31 renal): 2.13 µM
